Results taken from PubChem BioAssay (NCI).
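Compound exposure: 48 hours, 5 concentrations, 96-well plates. TGI is the concentration that stops growth completely.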

What was measured:
Assay in all cases: growth of human tumour cells (NCI), 48 h
HOP-92 NSCLC = tested on: HOP-92 NSCLC
HS 578T breast = tested on: HS 578T breast
786-0 renal = tested on: 786-0 renal
K-562 leukemia = tested on: K-562 leukemia
A498 renal = tested on: A498 renal
MALME-3M melanoma = tested on: MALME-3M melanoma
M14 melanoma = tested on: M14 melanoma
SK-MEL-5 melanoma = tested on: SK-MEL-5 melanoma
UACC-62 melanoma = tested on: UACC-62 melanoma
A549 NSCLC = tested on: A549 NSCLC
U251 CNS = tested on: U251 CNS
HT29 colon = tested on: HT29 colon
SF-539 CNS = tested on: SF-539 CNS
HOP-62 NSCLC = tested on: HOP-62 NSCLC
EKVX NSCLC = tested on: EKVX NSCLC
MDA-MB-231 breast = tested on: MDA-MB-231 breast
KM12 colon = tested on: KM12 colon
HCC-2998 colon = tested on: HCC-2998 colon
CAKI-1 renal = tested on: CAKI-1 renal
IGROV1 ovarian = tested on: IGROV1 ovarian
MOLT-4 leukemia = tested on: MOLT-4 leukemia
MCF7 breast = tested on: MCF7 breast
BT-549 breast = tested on: BT-549 breast
NCI-H522 lung = tested on: NCI-H522 lung
NCI-H23 lung = tested on: NCI-H23 lung
OVCAR-5 ovarian = tested on: OVCAR-5 ovarian
HCT-116 colon = tested on: HCT-116 colon
SK-MEL-28 melanoma = tested on: SK-MEL-28 melanoma
NCI/ADR-RES ovarian = tested on: NCI/ADR-RES ovarian
ACHN renal = tested on: ACHN renal
SN12C renal = tested on: SN12C renal
SK-MEL-2 melanoma = tested on: SK-MEL-2 melanoma
TK-10 renal = tested on: TK-10 renal
OVCAR-8 ovarian = tested on: OVCAR-8 ovarian
UO-31 renal = tested on: UO-31 renal
HL-60(TB) leukemia = tested on: HL-60(TB) leukemia
HCT-15 colon = tested on: HCT-15 colon
SNB-19 CNS = tested on: SNB-19 CNS
SR leukemia = tested on: SR leukemia
MDA-MB-435 = tested on: MDA-MB-435
UACC-257 melanoma = tested on: UACC-257 melanoma
NCI-H460 lung = tested on: NCI-H460 lung
SF-295 CNS = tested on: SF-295 CNS
SF-268 CNS = tested on: SF-268 CNS
CCRF-CEM leukemia = tested on: CCRF-CEM leukemia
MDA-N = tested on: MDA-N
DU-145 prostate = tested on: DU-145 prostate
SK-OV-3 ovarian = tested on: SK-OV-3 ovarian
SW-620 colon = tested on: SW-620 colon
PC-3 prostate = tested on: PC-3 prostate
OVCAR-3 ovarian = tested on: OVCAR-3 ovarian
COLO 205 colon = tested on: COLO 205 colon
RXF 393 renal = tested on: RXF 393 renal
T-47D breast = tested on: T-47D breast
RPMI-8226 leukemia = tested on: RPMI-8226 leukemia
SNB-75 CNS = tested on: SNB-75 CNS
LOX IMVI melanoma = tested on: LOX IMVI melanoma
OVCAR-4 ovarian = tested on: OVCAR-4 ovarian
NCI-H226 lung = tested on: NCI-H226 lung

With `CC1C(c2ccccc2)OP(=O)(OC(C#N)c2ccccc2)N1C` (stereo not drawn) the TGI (HOP-92 NSCLC) was over 100 µM, the TGI (HS 578T breast) was over 100 µM and the TGI (786-0 renal) was over 100 µM. It also gave a TGI (K-562 leukemia) of over 100 µM, a TGI (A498 renal) of over 100 µM and a TGI (MALME-3M melanoma) of over 100 µM. The TGI (M14 melanoma) was over 100 µM, the TGI (SK-MEL-5 melanoma) was over 100 µM and the TGI (UACC-62 melanoma) was over 100 µM. It also gave a TGI (A549 NSCLC) of over 100 µM, a TGI (U251 CNS) of over 100 µM and a TGI (HT29 colon) of over 100 µM. For the same compound, the TGI (SF-539 CNS) was over 100 µM, the TGI (HOP-62 NSCLC) was over 100 µM and the TGI (EKVX NSCLC) was over 100 µM. It also gave a TGI (MDA-MB-231 breast) of over 100 µM, a TGI (KM12 colon) of over 100 µM and a TGI (HCC-2998 colon) of over 100 µM. The TGI (CAKI-1 renal) was over 100 µM, the TGI (IGROV1 ovarian) was over 100 µM and the TGI (MOLT-4 leukemia) was over 100 µM. The TGI (MCF7 breast) was over 100 µM, the TGI (BT-549 breast) was over 100 µM and the TGI (NCI-H522 lung) was over 100 µM. It also gave a TGI (NCI-H23 lung) of over 100 µM, a TGI (OVCAR-5 ovarian) of over 100 µM and a TGI (HCT-116 colon) of over 100 µM. The TGI (SK-MEL-28 melanoma) was over 100 µM, the TGI (NCI/ADR-RES ovarian) was over 100 µM and the TGI (ACHN renal) was over 100 µM. For the same compound, the TGI (SN12C renal) was over 100 µM, the TGI (SK-MEL-2 melanoma) was over 100 µM and the TGI (TK-10 renal) was over 100 µM. For the same compound, the TGI (OVCAR-8 ovarian) was over 100 µM, the TGI (UO-31 renal) was over 100 µM and the TGI (HL-60(TB) leukemia) was over 100 µM. For the same compound, the TGI (HCT-15 colon) was over 100 µM, the TGI (SNB-19 CNS) was over 100 µM and the TGI (SR leukemia) was over 100 µM. The TGI (MDA-MB-435) was over 100 µM, the TGI (UACC-257 melanoma) was over 100 µM and the TGI (NCI-H460 lung) was over 100 µM. For the same compound, the TGI (SF-295 CNS) was over 100 µM, the TGI (SF-268 CNS) was over 100 µM and the TGI (CCRF-CEM leukemia) was over 100 µM. It also gave a TGI (MDA-N) of over 100 µM, a TGI (DU-145 prostate) of over 100 µM and a TGI (SK-OV-3 ovarian) of over 100 µM. It also gave a TGI (SW-620 colon) of over 100 µM, a TGI (PC-3 prostate) of over 100 µM and a TGI (OVCAR-3 ovarian) of over 100 µM. The TGI (COLO 205 colon) was over 100 µM, the TGI (RXF 393 renal) was over 100 µM and the TGI (T-47D breast) was over 100 µM. The TGI (RPMI-8226 leukemia) was over 100 µM, the TGI (SNB-75 CNS) was over 100 µM and the TGI (LOX IMVI melanoma) was over 100 µM.
Compound `O=C(NCCCCCCCCNC(=O)c1cc(-c2ccccc2)nc2ccccc12)c1cc(-c2ccccc2)nc2ccccc12` has a TGI (HOP-92 NSCLC) of over 100 µM, a TGI (HS 578T breast) of over 100 µM and a TGI (786-0 renal) of over 100 µM. The TGI (K-562 leukemia) was over 100 µM, the TGI (A498 renal) was over 100 µM and the TGI (MALME-3M melanoma) was over 100 µM. For the same compound, the TGI (M14 melanoma) was over 100 µM, the TGI (SK-MEL-5 melanoma) was over 100 µM and the TGI (UACC-62 melanoma) was over 100 µM. For the same compound, the TGI (A549 NSCLC) was over 100 µM, the TGI (U251 CNS) was over 100 µM and the TGI (HT29 colon) was over 100 µM. It also gave a TGI (SF-539 CNS) of over 100 µM, a TGI (HOP-62 NSCLC) of over 100 µM and a TGI (EKVX NSCLC) of over 100 µM. The TGI (MDA-MB-231 breast) was over 100 µM, the TGI (CAKI-1 renal) was over 100 µM and the TGI (IGROV1 ovarian) was over 100 µM. For the same compound, the TGI (MOLT-4 leukemia) was over 100 µM, the TGI (MCF7 breast) was over 100 µM and the TGI (BT-549 breast) was over 100 µM. The TGI (NCI-H522 lung) was over 100 µM, the TGI (NCI-H23 lung) was over 100 µM and the TGI (OVCAR-5 ovarian) was over 100 µM. It also gave a TGI (HCT-116 colon) of over 100 µM, a TGI (SK-MEL-28 melanoma) of over 100 µM and a TGI (NCI/ADR-RES ovarian) of over 100 µM. It also gave a TGI (ACHN renal) of over 100 µM, a TGI (SN12C renal) of over 100 µM and a TGI (OVCAR-4 ovarian) of over 100 µM. It also gave a TGI (TK-10 renal) of over 100 µM, a TGI (OVCAR-8 ovarian) of over 100 µM and a TGI (UO-31 renal) of over 100 µM. It also gave a TGI (HL-60(TB) leukemia) of over 100 µM, a TGI (HCT-15 colon) of over 100 µM and a TGI (SNB-19 CNS) of over 100 µM. It also gave a TGI (SR leukemia) of over 100 µM, a TGI (MDA-MB-435) of over 100 µM and a TGI (UACC-257 melanoma) of over 100 µM. It also gave a TGI (NCI-H460 lung) of over 100 µM, a TGI (SF-295 CNS) of over 100 µM and a TGI (SF-268 CNS) of over 100 µM. For the same compound, the TGI (CCRF-CEM leukemia) was over 100 µM, the TGI (NCI-H226 lung) was over 100 µM and the TGI (MDA-N) was over 100 µM. The TGI (DU-145 prostate) was over 100 µM, the TGI (SK-OV-3 ovarian) was over 100 µM and the TGI (SW-620 colon) was over 100 µM. The TGI (PC-3 prostate) was over 100 µM, the TGI (OVCAR-3 ovarian) was over 100 µM and the TGI (COLO 205 colon) was over 100 µM. The TGI (RXF 393 renal) was 84.4 µM, the TGI (T-47D breast) was over 100 µM and the TGI (RPMI-8226 leukemia) was over 100 µM. For the same compound, the TGI (SNB-75 CNS) was over 100 µM and the TGI (LOX IMVI melanoma) was over 100 µM.
